Assays:
[1] = tested on: ducksalad; test: Test B flooded paddy test; format: in vivo, Heteranthera limosa; conditions: Flood, scale of 0 to 100 where 0 is no effect and 100 is complete control
How it was run: (§1)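 Plants were grown to the 2-leaf stage, then pots were flooded to 3 cm above the soil and compound was applied directly into the paddy water, with that depth held throughout. After 13 to 15 days in a greenhouse, injury was rated visually against untreated controls on a 0 to 100 scale (100 = complete control).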

[2] = tested on: soybean; test: Test C pre-/postemergence herbicide test; format: in vivo, Glycine max; conditions: Preemergence; for Plant response rating, Soybean: 125 g ai/ha
How it was run: (§2)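 Pre- and postemergence greenhouse screen. Preemergence treatment went onto freshly planted seeds in loam–sand soil; postemergence treatment went onto plants 2 to 18 cm tall at the 1- to 4-leaf stage in sphagnum peat/vermiculite medium. Scoring at 13 to 15 days used a 0–100 control scale.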

[3] = tested on: barnyardgrass; test: Test A pre-/postemergence herbicide test; format: in vivo, Echinochloa crus-galli
How it was run: (§3)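 Visual injury ratings, 0 = no effect, 100 = complete control, taken ~10 days after treatment against untreated greenhouse controls. Preemergence: directed soil spray onto seeded loam/sand pots. Postemergence: spray onto plants at one- to two-leaf stage, 2–10 cm tall.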

[4] = tested on: morningglory; test: Test C pre-/postemergence herbicide test; format: in vivo, Ipomoea coccinea; conditions: Preemergence; for Plant response rating, Morningglory: 125 g ai/ha; for Plant response rating (scale of 0 to 100), Morningglory: 250 g ai/ha
How it was run: as §2

[5] = tested on: nutsedge, yellow; test: Test C pre-/postemergence herbicide test; format: in vivo, Cyperus esculentus; conditions: Preemergence; for Plant response rating, Nutsedge, Yellow: 125 g ai/ha; for Plant response rating (scale of 0 to 100), Nutsedge, Yellow: 250 g ai/ha
How it was run: as §2

[6] = tested on: waterhemp; test: Test C pre-/postemergence herbicide test; format: in vivo, Amaranthus rudis; conditions: Preemergence; for Plant response rating, Waterhemp: 125 g ai/ha
How it was run: as §2

[7] = tested on: barnyardgrass; test: Test C pre-/postemergence herbicide test; format: in vivo, Echinochloa crus-galli; conditions: Preemergence; for Plant response rating (scale of 0 to 100; 0 is no effect, 100 is complete control), Barnyardgrass: 250 g ai/ha
How it was run: as §2

[8] = tested on: pigweed; test: Test A pre-/postemergence herbicide test; format: in vivo, Amaranthus retroflexus
How it was run: as §3

[9] = tested on: ryegrass, Italian; test: Test C pre-/postemergence herbicide test; format: in vivo, Lolium multiflorum; conditions: Preemergence; for Plant response rating, Ryegrass, Italian: 125 g ai/ha
How it was run: as §2

[10] = tested on: rice; test: Test B flooded paddy test; format: in vivo, Oryza sativa; conditions: Flood, scale of 0 to 100 where 0 is no effect and 100 is complete control
How it was run: as §1

[11] = tested on: barnyardgrass; test: Test B flooded paddy test; format: in vivo, Echinochloa crus-galli; conditions: Flood, scale of 0 to 100 where 0 is no effect and 100 is complete control
How it was run: as §1

[12] = 31 g ai/ha, scale 0 to 100, 0 is no effect and 100 is complete control
[13] = 62 g ai/ha, scale 0 to 100 (0 no effect, 100 complete control)
[14] = scale 0 to 100 (0 no effect, 100 complete control)
[15] = 125 g ai/ha, visual rating, 0 to 100 scale, 0 no effect, 100 complete control, approximately 10 days, preemergence
[16] = Postemergence, 125 g ai/ha, 0 to 100 scale, 0 is no effect, 100 is complete control
[17] = preemergence, 500 g ai/ha, 0 to 100 scale, 0 is no effect and 100 is complete control
[18] = 125 g ai/ha, scale 0 to 100 (0 no effect, 100 complete control)
[19] = Postemergence, 125 g ai/ha, visual rating on 0 to 100 scale (0 no effect, 100 complete control), approx. 10 days
[20] = Postemergence, 500 g ai/ha, 0 to 100 scale (0 no effect, 100 complete control)
[21] = Preemergence, 125 g ai/ha, 0 to 100 scale where 0 is no effect and 100 is complete control
[22] = Preemergence, 500 g ai/ha, visual rating on 0 to 100 scale (0 no effect, 100 complete control)

Compound: O=C1NCC(c2ccc(C(F)(F)F)cc2)C1C(=O)Nc1ccccc1F (stereo not shown) [Compound 231]
- Plant response rating, Ducksalad ([1]; 500 g ai/ha): 0
- Soybean plant response rating [2, 12]: 0
- Soybean plant response rating [2, 13]: 0
- Plant response rating, Soybean [2, 14]: 0
- Plant response rating (scale of 0 to 100), Soybean ([2]; 250 g ai/ha): 5
- Plant response rating, Barnyardgrass [3, 15]: 90
- Plant response rating, Barnyardgrass [3, 16]: 80
- Barnyardgrass plant response rating (0 to 100 scale, 0 is no effect, 100 is complete control) ([3]; Postemergence, 500 g ai/ha): 90
- Plant response rating, Barnyardgrass [3, 17]: 90
- Morningglory plant response rating [4, 12]: 0
- Morningglory plant response rating [4, 13]: 0
- Plant response rating, Morningglory [4, 14]: 0
- Plant response rating (scale of 0 to 100), Morningglory [4]: 20
- Nutsedge, Yellow plant response rating [5, 12]: 0
- Nutsedge, Yellow plant response rating [5, 13]: 0
- Plant response rating, Nutsedge, Yellow [5, 14]: 0
- Plant response rating (scale of 0 to 100), Nutsedge, Yellow [5]: 0
- Waterhemp plant response rating [6, 12]: 75
- Waterhemp plant response rating [6, 13]: 85
- Plant response rating, Waterhemp [6, 14]: 100
- Plant response rating (scale of 0 to 100), Waterhemp ([6]; 250 g ai/ha): 95
- Barnyardgrass plant response rating [7, 12]: 85
- Plant response rating, Barnyardgrass ([7]; 62 g ai/ha, scale 0 to 100): 90
- Plant response rating, Barnyardgrass [7, 18]: 95
- Plant response rating (scale of 0 to 100; 0 is no effect, 100 is complete control), Barnyardgrass [7]: 95
- Plant response rating, Pigweed [8, 15]: 70
- Plant response rating, Pigweed [8, 16]: 0
- Pigweed plant response rating (0 to 100 scale, 0 is no effect, 100 is complete control) ([8]; Postemergence, 500 g ai/ha): 40
- Plant response rating, Pigweed [8, 17]: 70
- Ryegrass, Italian plant response rating [9, 12]: 0
- Ryegrass, Italian plant response rating [9, 13]: 10
- Plant response rating, Ryegrass, Italian [9, 14]: 15
- Plant response rating (scale of 0 to 100), Ryegrass, Italian ([9]; 250 g ai/ha): 15
- Plant response rating, Rice ([10]; 500 g ai/ha): 0
- Plant response rating, Barnyardgrass ([11]; 500 g ai/ha): 0

Compound: CC(C)c1cccc(C2CNC(=O)C2C(=O)Nc2ccccc2F)c1 (stereo not shown) [Compound 318]
- Plant response rating, Ducksalad ([1]; 500 g ai/ha): 100
- Soybean plant response rating [2, 13]: 0
- Plant response rating, Soybean ([2]; scale 0 to 100): 0
- Plant response rating, Barnyardgrass [3, 19]: 90
- Plant response rating, Barnyardgrass [3, 20]: 90
- Plant response rating, Barnyardgrass [3, 21]: 90
- Barnyardgrass plant response rating [3, 22]: 90
- Morningglory plant response rating [4, 12]: 30
- Morningglory plant response rating [4, 13]: 40
- Plant response rating, Morningglory ([4]; scale 0 to 100): 30
- Plant response rating (scale of 0 to 100), Morningglory [4]: 40
- Nutsedge, Yellow plant response rating [5, 12]: 0
- Nutsedge, Yellow plant response rating [5, 13]: 0
- Plant response rating, Nutsedge, Yellow ([5]; scale 0 to 100): 0
- Plant response rating (scale of 0 to 100), Nutsedge, Yellow [5]: 0
- Waterhemp plant response rating [6, 13]: 30
- Plant response rating, Waterhemp ([6]; scale 0 to 100): 10
- Barnyardgrass plant response rating [7, 12]: 80
- Barnyardgrass plant response rating [7, 13]: 95
- Plant response rating, Barnyardgrass [7, 18]: 95
- Plant response rating (scale of 0 to 100; 0 is no effect, 100 is complete control), Barnyardgrass [7]: 95
- Plant response rating, Pigweed [8, 19]: 20
- Plant response rating, Pigweed [8, 20]: 20
- Plant response rating, Pigweed [8, 21]: 0
- Pigweed plant response rating [8, 22]: 20
- Ryegrass, Italian plant response rating [9, 13]: 0
- Plant response rating, Ryegrass, Italian ([9]; scale 0 to 100): 0
- Plant response rating, Rice ([10]; 500 g ai/ha): 15
- Plant response rating, Barnyardgrass ([11]; 500 g ai/ha): 75

Compound: CC(C)c1cccc(C2CNC(=O)C2C(=O)Nc2cccc(F)c2F)c1 (stereo not shown) [Compound 319]
- Plant response rating, Ducksalad ([1]; 500 g ai/ha): 100
- Soybean plant response rating [2, 13]: 0
- Plant response rating, Soybean ([2]; scale 0 to 100): 0
- Plant response rating, Barnyardgrass [3, 19]: 90
- Plant response rating, Barnyardgrass [3, 20]: 90
- Plant response rating, Barnyardgrass [3, 21]: 90
- Barnyardgrass plant response rating [3, 22]: 90
- Morningglory plant response rating [4, 12]: 55
- Morningglory plant response rating [4, 13]: 40
- Plant response rating, Morningglory ([4]; scale 0 to 100): 45
- Plant response rating (scale of 0 to 100), Morningglory [4]: 40
- Nutsedge, Yellow plant response rating [5, 12]: 0
- Nutsedge, Yellow plant response rating [5, 13]: 0
- Plant response rating, Nutsedge, Yellow ([5]; scale 0 to 100): 0
- Plant response rating (scale of 0 to 100), Nutsedge, Yellow [5]: 30
- Waterhemp plant response rating [6, 13]: 35
- Plant response rating, Waterhemp ([6]; scale 0 to 100): 35
- Barnyardgrass plant response rating [7, 12]: 90
- Barnyardgrass plant response rating [7, 13]: 95
- Plant response rating, Barnyardgrass [7, 18]: 95
- Plant response rating (scale of 0 to 100; 0 is no effect, 100 is complete control), Barnyardgrass [7]: 98
- Plant response rating, Pigweed [8, 19]: 0
- Plant response rating, Pigweed [8, 20]: 20
- Plant response rating, Pigweed [8, 21]: 0
- Pigweed plant response rating [8, 22]: 20
- Ryegrass, Italian plant response rating [9, 13]: 10
- Plant response rating, Ryegrass, Italian ([9]; scale 0 to 100): 20
- Plant response rating, Rice ([10]; 500 g ai/ha): 0
- Plant response rating, Barnyardgrass ([11]; 500 g ai/ha): 70

Compound: O=C1NCC(c2cccc(C(F)(F)F)c2)C1C(=O)Nc1ccc(F)c(F)c1F (stereo not shown) [Compound 345]
- Plant response rating, Ducksalad ([1]; 1000 g ai/ha): 30
- Soybean plant response rating [2, 13]: 0
- Plant response rating, Soybean ([2]; scale 0 to 100): 5
- Plant response rating, Barnyardgrass [3, 19]: 70
- Plant response rating, Barnyardgrass [3, 20]: 90
- Plant response rating, Barnyardgrass [3, 21]: 80
- Barnyardgrass plant response rating [3, 22]: 90
- Morningglory plant response rating [4, 12]: 25
- Morningglory plant response rating [4, 13]: 0
- Plant response rating, Morningglory ([4]; scale 0 to 100): 0
- Plant response rating (scale of 0 to 100), Morningglory [4]: 35
- Nutsedge, Yellow plant response rating [5, 12]: 0
- Nutsedge, Yellow plant response rating [5, 13]: 0
- Plant response rating, Nutsedge, Yellow ([5]; scale 0 to 100): 0
- Plant response rating (scale of 0 to 100), Nutsedge, Yellow [5]: 0
- Waterhemp plant response rating [6, 13]: 5
- Plant response rating, Waterhemp ([6]; scale 0 to 100): 40
- Barnyardgrass plant response rating [7, 12]: 80
- Barnyardgrass plant response rating [7, 13]: 95
- Plant response rating, Barnyardgrass [7, 18]: 95
- Plant response rating (scale of 0 to 100; 0 is no effect, 100 is complete control), Barnyardgrass [7]: 95
- Plant response rating, Pigweed [8, 19]: 20
- Plant response rating, Pigweed [8, 21]: 0
- Pigweed plant response rating [8, 22]: 70
- Ryegrass, Italian plant response rating [9, 13]: 45
- Plant response rating, Ryegrass, Italian ([9]; scale 0 to 100): 10
- Plant response rating, Rice ([10]; 1000 g ai/ha): 0
- Plant response rating, Barnyardgrass ([11]; 1000 g ai/ha): 0

Source: US10294202B2, “Pyrrolidinones as herbicides” (FMC Corporation, priority 2013, dated 2019)
